Experimental data as given in patent US12485178B2, “Bifunctional small molecules to target the selective degradation of circulating proteins” (YALE UNIVERSITY, priority 2018, dated 2025).

Columns and labels:
human MIF [1] = biological target: T1, human MIF (Homo sapiens, UniProt P14174); assay: Depletion of human MIF from supernatant of cultured HepG2 cells (sandwich ELISA); type: cell-based; settings: 100 nM huMIF, after 24 hours
T1 sequence (P14174 2-115 limits assumed): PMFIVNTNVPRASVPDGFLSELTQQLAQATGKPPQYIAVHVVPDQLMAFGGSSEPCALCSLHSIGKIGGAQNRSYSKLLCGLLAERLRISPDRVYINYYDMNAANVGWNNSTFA
Method: In an experiment the results of which are presented in FIG. 3, bifunctional molecules were able to deplete human MIF from the supernatant of culture HepG2 cells. Briefly, human MIF (100 nM) was added to cell culture media in the presence of negative control MIF inhibitor 3w as well as bifunctional molecules MIF-NVS-PEGn-GN3, MIF-GN3, MIF-PEGn-Gn3, MIF-AcF3-1, MIF-AcF3-2, and MIF-AcF3-3. All molecules utilized a known MIF-binding ligand. Experiments were performed in 96 well plates (approximate surface area 0.3 cm^2). HepG2 cells were grown to 90% confluency in RPMI media, then washed with PBS (2×) and treated with serum-free media (optimem+0.1% BSA, +Pen/Strep) containing 100 nM huMIF (Cayman Chemical) and compounds (when applicable). Compounds were diluted from 1 mM stock solutions in DMSO. After 24 hours, a sample of the supernatant (2 uL) was collected, diluted 1:100, and analyzed for MIF content by sandwich ELISA (and incubated for 24 hours in the presence or absence of compound). Remaining MIF levels were determined by sandwich ELISA (biolegend monoclonal anti-MIF and biotinylated anti-MIF antibodies). Data represents the average of at least 3 biological replicates, and error bars represent a standard deviation. After 24 hours, up to 95.3% of the MIF had been depleted from cell culture media (in the case of MIF-AcF3-3).

human MIF [2] = biological target: T1, human MIF; assay: Depletion of injected human MIF from mice (serum sandwich ELISA); type: in vivo, mouse
Method: Human MIF has a half-life of approximately 40 minutes in mice. In this experiment, human recombinant MIF (Cayman chemical) was co-injected into mice with an anti-DNP IgG, which was used as an injection positive control. In particular, nude mice were injected with 5 μg recombinant human MIF and 200 μg anti-DNP IgG as an injection control (FIG. 4). MIF-GN3 was then injected at the concentration shown and blood drawn every twenty minutes over the course of two hours. Serum was diluted 1:100 and analyzed for MIF content by sandwich ELISA (biolegend monoclonal anti-MIF and biotinylated anti-MIF antibodies). […] In the mice treated with MIF-GN3, a moderate increase in huMIF levels up to 20 ng/ml was seen, while in mice injected with PBS negative control, serum levels of up to 150 ng/ml were observed, evidencing a substantial decrease in huMIF levels as a consequence of the administration of MIF-GN3.

[3] = test system: PC3 human prostate cancer cells; assay: Mouse model of prostate cancer (PC3 engraftment), tumor growth; type: in vivo; settings: nude mice engrafted with PC3 cells, treatment initiated immediately
Excerpt: In this experiment, nude mice were engrafted with PC3 human prostate cancer cells. Treatment was then initiated immediately with either a non-bifunctional MIF inhibitor (3w), an anti-MIF antibody, or MIF-GN3.

human MIF [4] = biological target: T1, human MIF; assay: Trafficking of MIF internalized by HepG2 cells to lysosomes (immunofluorescence colocalization); type: cell-based; settings: 100 nM rhuMIF, 200 nM compound, 12 hours
Method: In this experiment, cells were incubated with rhuMIF (Cayman) at a concentration of 100 nM with 200 nM MIF-GN3.

Row | SMILES | MIF depleted from cell culture media (human MIF [1]) | serum huMIF levels (human MIF [2]; nude mice injected with 5 μg recombinant human MIF, blood drawn over two hours) | depletion of injected human MIF from mice (human MIF [2]; nude mice, FIG. 5) | tumor growth [3] | MIF internalization in lysosomes (human MIF [4])
1 | O=C(CCOCC(COCCC(=O)NCCOCCOCCOCCOC[C@@]12CO[C@@H](O1)[C@H](NC(=O)C(F)(F)F)[C@@H](O)[C@H]2O)(COCCC(=O)NCCOCCOCCOCCOC[C@@]12CO[C@@H](O1)[C@H](NC(=O)C(F)(F)F)[C@@H](O)[C@H]2O)NC(=O)CCCOc1ccc2nc(-c3cn(-c4ccc(O)c(F)c4)nn3)ccc2c1)NCCOCCOCCOCCOC[C@@]12CO[C@@H](O1)[C@H](NC(=O)C(F)(F)F)[C@@H](O)[C@H]2O [MIF-AcF3-3] | 95.3% | – | – | – | –
2 | CC(=O)N[C@H]1[C@H](OCCOCCOCCNC(=O)CCOCC(COCCC(=O)NCCOCCOCCO[C@@H]2O[C@H](CO)[C@H](O)[C@H](O)[C@H]2NC(C)=O)(COCCC(=O)NCCOCCOCCO[C@@H]2O[C@H](CO)[C@H](O)[C@H](O)[C@H]2NC(C)=O)NC(=O)CNC(=O)CCCOc2ccc3nc(-c4cn(-c5ccc(O)c(F)c5)nn4)ccc3c2)O[C@H](CO)[C@H](O)[C@@H]1O [MIF-GN3] | – | up to 20 ng/ml | mediates the depletion of injected human MIF from mice | slowing of tumor growth | evidencing internalization in lysosomes
